This experiment has as its target T1, KCNQ2/3 channels (Homo sapiens, UniProt O43525+O43526).
T1 construct: expressed in transfected cells; host or cells: CHO-K1
Put plainly: Fluorescence assay using a voltage sensitive dye (fluorimetry). Type of experiment: cell-based. The settings on record: CHO-K1 cells expressing KCNQ2/3; for Emax: plateau effect relative to saturated Retigabine (50 μM), read-out: Fluorimetry % efficacy (retigabine = 100%); for EC50: voltage-sensitive dye, KCl depolarization, read-out: Fluorimetry EC50/IC50. The text has this: Method I. Fluorescence Assay Using a Voltage Sensitive Dye (Fluorimetry)
The modulation of the KCNQ opening state (and consequently the voltage potential of a cell) by test compounds such as compounds according to the present invention results in an increased or reduced amount of a voltage-sensitive dye in the cytoplasm of the cells tested. These voltage-sensitive dyes are fluorescent dyes and, therefore, are forming the link between cell potential influenced by KCNQ modulation and fluorescence intensity. A KCNQ agonist leads to an opening of the channel, potassium and dye efflux, a following hyperpolarization and a reduction of the inner fluorescence intensity in a kinetic protocol. If applying an ion jump by KCl depolarization, KCNQ agonists increase the ΔF/F value. An antagonist performs vice versa, respectively.
The ‘fluorimetry EC50’ is the half maximum effective concentration (EC50), where the concentration of a drug/compound induces a response halfway between the baseline and maximum plateau effect. In other words, said value represents the concentration of a compound, where 50% of its maximal effect in the fluorimetric assay is observed if the substance concentration is graphed against the corresponding ΔF/F values (for which the calculation method is described below). Therefore, ‘fluorimetry EC50’ is a measure for the compound potency. The compound efficacy is mirrored by ‘fluorimetry % efficacy’ (‘% Efficacy’) and refers to the maximum response achievable by the test compound, i.e. the plateau effect. This drug's plateau effect is related to the plateau effect, which can be achieved by applying a saturated concentration of a reference compound, e.g. Retigabine (50 μM), in independent wells of the same experimental plate or series. A compound showing 100% efficacy is as efficacious as the reference compound (Retigabine) with a saturated concentration.
[…] CHO-K1 cells expressing KCNQ2/3 channels are cultivated adherently at 37° C., 5% CO2 and 95% humidity in cell culture bottles (e.g. 80 cm^2 TC flasks, Nunc) with DMEM-high glucose (Sigma Aldrich, D7777) including 10% FCS (PAN Biotech, e.g. 3302-P270521) or alternatively MEM Alpha Medium (1×, liquid, Invitrogen, #22571), 10% fetal calf serum (FCS) (Invitrogen, #10270-106, heat-inactivated) and the necessary selection antibiotics.
Before being sown out for the measurements, the cells are washed with 1× DPBS buffer Ca^2+/Mg^2+-free (e.g. Invitrogen, #14190-094) and detached from the bottom of the culture vessel by using Accutase (PAA Laboratories, #L11-007) (incubation with Accutase for 15 min at 37° C.). The cell number is determined using a CASY™ cell counter (TCC, Schärfe System). Depending on the optimal density for each individual cell line, 20,000-30,000 cells/well/100 μl are seeded onto 96-well Corning™ CellBIND™ assay plates (Flat Clear Bottom Black Polystyrene Microplates, #3340). Freshly seeded cells are then left to settle for one hour at room temperature, followed by incubation for 24 hours at 37° C., 5% CO2 and 95% humidity.
The voltage-sensitive fluorescent dye from the Membrane Potential Assay Kit (Red™ Bulk format part R8123 for FLIPR, MDS Analytical Technologies™) is prepared by dissolving the contents of one vessel Membrane Potential Assay Kit Red Component A in 200 ml of extracellular buffer (ES buffer, 120 mM NaCl, 1 mM KCl, 10 mM HEPES, 2 mM CaCl2, 2 mM MgCl2, 10 mM glucose; pH 7.4). After removal of the nutrient medium, the cells are washed once with 200 μl of ES buffer, then loaded for 45 min at room temperature in 100 μl of dye solution in the dark.
Fluorescence measurements are carried out in a BMG Labtech FLUOstar™, BMG Labtech NOVOstar™ or BMG Labtech POLARstar™ instrument (525 nm excitation, 560 nm emission, Bottom Read mode). […]

Take `CCSc1cc(N2CCOCC2)cc(C)c1C(=O)NCc1cccc(F)c1` [Example 1, 2-Ethylsulfanyl-N-[(3-fluorophenyl)-methyl]-6-methyl-4-morpholin-4-yl-benzamide]: the Emax amounted to 163% and the EC50 stood at 1.48 µM.
With `CCSc1cc(N2CCOCC2)cc(C)c1C(=O)NCc1ccc(Cl)cc1` [Example 2, N-[(4-Chlorophenyl)-methyl]-2-ethylsulfanyl-6-methyl-4-morpholin-4-yl-benzamide], the Emax stood at 152% and the EC50 stood at 0.483 µM.
`CCSc1cc(N2CCOCC2)cc(C)c1C(=O)NCCCC(C)(C)C` [Example 3, N-(4,4-Dimethyl-pentyl)-2-ethylsulfanyl-6-methyl-4-morpholin-4-yl-benzamide]: the Emax amounted to 220% and the EC50 amounted to 0.335 µM.
For `CCSc1cc(N2CCOC[C@H]2C)cc(C)c1C(=O)NCc1ccc(Cl)cc1` [Example 4, N-[(4-Chlorophenyl)-methyl]-2-ethylsulfanyl-6-methyl-4-[(3R)-3-methyl-morpholin-4-yl]-benzamide], in that order: 200% and 0.26 µM.
Turning to `CCSc1cc(N2CCOC[C@H]2C)cc(C)c1C(=O)NCCCC(C)(C)C` [Example 5, N-(4,4-Dimethyl-pentyl)-2-ethylsulfanyl-6-methyl-4-[(3R)-3-methyl-morpholin-4-yl]-benzamide], the Emax amounted to 246% and the EC50 came out at 0.108 µM.
Taken in the same sequence, the figures for `CC[S+]([O-])c1cc(N2CCOCC2)cc(C)c1C(=O)NCCCC(C)(C)C` (centres unmarked) [Example 7, N-(4,4-Dimethyl-pentyl)-2-(ethylsulfinyl)-6-methyl-4-morpholin-4-yl-benzamide] were 66% and 8.8 µM.
With `CCS(=O)(=O)c1cc(N2CCOCC2)cc(C)c1C(=O)NCc1ccc(Cl)cc1` [Example 8, N-[(4-Chlorophenyl)-methyl]-2-(ethylsulfonyl)-6-methyl-4-morpholin-4-yl-benzamide], the Emax came out at 88% and the EC50 was 5.56 µM.
`CCS(=O)(=O)c1cc(N2CCOCC2)cc(C)c1C(=O)NCCCC(C)(C)C` [Example 9, N-(4,4-Dimethyl-pentyl)-2-(ethylsulfonyl)-6-methyl-4-morpholin-4-yl-benzamide]: the Emax is 65% and the EC50 was determined as 9.3 µM.
For the compound `COc1cc(N2CCOCC2)cc(C)c1C(=O)NCc1ccc(Cl)cc1` [Example 10, N-[(4-Chlorophenyl)-methyl]-2-methoxy-6-methyl-4-morpholin-4-yl-benzamide], the Emax was determined as 147% and the EC50 was 1.64 µM.
As for `CCOc1cc(N2CCOCC2)cc(C)c1C(=O)NCc1ccc(Cl)cc1` [Example 11, N-[(4-Chlorophenyl)-methyl]-2-ethoxy-6-methyl-4-morpholin-4-yl-benzamide], the Emax worked out at 141% and the EC50 is 1.35 µM.
For `CCc1cc(N2CCOCC2)cc(C)c1C(=O)NCc1ccc(Cl)cc1` [Example 12, N-[(4-Chlorophenyl)-methyl]-2-ethyl-6-methyl-4-morpholin-4-yl-benzamide], the Emax is 169% and the EC50 came out at 0.369 µM.
Turning to `CCCc1cc(N2CCOCC2)cc(C)c1C(=O)NCc1ccc(Cl)cc1` [Example 13, N-[(4-Chlorophenyl)-methyl]-2-methyl-4-morpholin-4-yl-6-propyl-benzamide], the Emax worked out at 183% and the EC50 is 0.217 µM.
Take `Cc1cc(N2CCOCC2)cc(C2CC2)c1C(=O)NCc1ccc(Cl)cc1` [Example 15, N-[(4-Chlorophenyl)-methyl]-2-cyclopropyl-6-methyl-4-morpholin-4-yl-benzamide]: the Emax was found to be 170% and the EC50 was found to be 0.552 µM.
For `Cc1cc(N2CCOCC2)cc(C2CCCC2)c1C(=O)NCc1ccc(Cl)cc1` [Example 16, N-[(4-Chlorophenyl)-methyl]-2-cyclopentyl-6-methyl-4-morpholin-4-yl-benzamide], in that order: 194% and 0.033 µM.
For the compound `Cc1cc(N2CCOCC2)cc(C2CC2)c1C(=O)NCc1ccc(F)cc1` [Example 18, 2-Cyclopropyl-N-[(4-fluorophenyl)-methyl]-6-methyl-4-morpholin-4-yl-benzamide], the Emax amounted to 169% and the EC50 turned out to be 0.982 µM.
With `Cc1cc(N2CCOCC2)cc(C(F)(F)F)c1C(=O)NCc1ccc(Cl)cc1` [Example 19, N-[(4-Chlorophenyl)-methyl]-2-methyl-4-morpholin-4-yl-6-(trifluoromethyl)-benzamide], the Emax was found to be 185% and the EC50 came out at 0.4 µM.
For the compound `Cc1cc(N2CCOCC2)cc(C(F)F)c1C(=O)NCc1ccc(Cl)cc1` [Example 20, N-[(4-Chlorophenyl)-methyl]-2-(difluoro-methyl)-6-methyl-4-morpholin-4-yl-benzamide], the Emax was found to be 144% and the EC50 was 0.708 µM.
Consider `C=C(C)c1cc(N2CCOCC2)cc(C)c1C(=O)NCc1ccc(C(F)(F)F)cc1` [Example 21, 2-Isopropenyl-6-methyl-4-morpholin-4-yl-N-[[4-(trifluoromethyl)-phenyl]-methyl]-benzamide], for which the Emax is 118% and the EC50 was 0.626 µM.
For the compound `Cc1cc(N2CCOCC2)cc(C(C)C)c1C(=O)NCc1ccc(C(F)(F)F)cc1` [Example 22, 2-Isopropyl-6-methyl-4-morpholin-4-yl-N-[[4-(trifluoromethyl)-phenyl]-methyl]-benzamide], the Emax came to 148% and the EC50 worked out at 0.184 µM.
Taken in the same sequence, the figures for `Cc1cc(N2CCOCC2)cc(C(C)C)c1C(=O)NCc1ccc(OC(F)(F)F)cc1` [Example 23, 2-Isopropyl-6-methyl-4-morpholin-4-yl-N-[[4-(trifluoromethyloxy)-phenyl]-methyl]-benzamide] were 161% and 0.139 µM.
On to `Cc1cc(N2CCOCC2)cc(C2CC2)c1C(=O)NCc1ccc(C(F)(F)F)cc1` [Example 24, 2-Cyclopropyl-6-methyl-4-morpholin-4-yl-N-[[4-(trifluoromethyl)-phenyl]-methyl]-benzamide], for which the Emax is 134% and the EC50 came out at 0.693 µM.
For `Cc1cc(N2CCOCC2)cc(C2CC2)c1C(=O)NCc1ccc(OC(F)(F)F)cc1` [Example 25, 2-Cyclopropyl-6-methyl-4-morpholin-4-yl-N-[[4-(trifluoromethyloxy)-phenyl]-methyl]-benzamide], in that order: 144% and 0.355 µM.
Turning to `Cc1cc(N2CCCC2)cc(C(F)(F)F)c1C(=O)NCc1cccc(F)c1` [Example 26, N-[(3-Fluorophenyl)-methyl]-2-methyl-4-pyrrolidin-1-yl-6-(trifluoromethyl)-benzamide], the Emax turned out to be 156% and the EC50 was 0.453 µM.
Turning to `Cc1cc(N2CCCCC2)cc(C(F)(F)F)c1C(=O)NCc1cccc(F)c1` [Example 27, N-[(3-Fluorophenyl)-methyl]-2-methyl-4-piperidin-1-yl-6-(trifluoromethyl)-benzamide], the Emax was determined as 197% and the EC50 worked out at 0.673 µM.
Take `Cc1cc(N2CCOCC2)cc(C2CC2)c1C(=O)NCC[C@@H](O)C(C)(C)C` [Example 28, 2-Cyclopropyl-N-[(3R)-3-hydroxy-4,4-dimethyl-pentyl]-6-methyl-4-morpholin-4-yl-benzamide]: the Emax is 155% and the EC50 stood at 4.66 µM.

These data come from patent US9108936B2, “Substituted 4-aminobenzamides as KCNQ2/3 modulators” (GRUENENTHAL GMBH, priority 2012, dated 2015).
